Results published in patent US7157495B2, “Hexahydrofuro[2,3-B]furan-3-YL-N-{3-[(1,3-benzodioxol-5-ylsulfonyl)(isobutyl)amino]-1-benzyl-2-hydroxypropyl}carbamate as retroviral protease inhibitor” (Tibotec Pharmaceuticals, Ltd., priority 1999, dated 2007).
pIC50: −log10 of the molar value. Where two headings read alike, the source gives them in different places.

Legend:
Format in all cases: cell-based
HIV-1 strain LAI = experiment: Cellular anti-HIV assay in MT4 cells (MTT)
Procedure: (§1) HIV- or mock-infected MT4 cells were incubated for five days in the presence of various concentrations of the inhibitor. At the end of the incubation period, all HIV-infected cells have been killed by the replicating virus in the control cultures in the absence of any inhibitor. Cell viability is measured by measuring the concentration of MTT, a yellow, water soluble tetrazolium dye that is converted to a purple, water insoluble formazan in the mitochondria of living cells only. Upon solubilization of the resulting formazan crystals with isopropanol, the absorbance of the solution is monitored at 540 nm. The values correlate directly to the number of living cells remaining in the culture at the completion of the five day incubation. The inhibitory activity of the compound was monitored on the virus-infected cells and was expressed as IC50 and IC90. These values represent the amount of the compound required to protect 50% and 90%, respectively, of the cells from the cytopathogenic effect of the virus. The toxicity of the compound was measured on the mock-infected cells and was expressed as CC50, which represents the concentration of compound required to inhibit the growth of the cells by 50%. The select index (SI) (ratio CC50/IC50) is an indication of the selectivity of the anti-HIV activity of the inhibitor.

HIV strain r13037 = experiment: Antiviral spectrum, protease inhibitor resistant strain; details: Human immunodeficiency virus 1, strain r13037; L10I, M46I, I54V, L63P, A71T, V77I, V82A, L90M
Procedure: as §1
(§2) Because of the increasing emergence of drug resistant HIV strains, compound 13 and compound 14 were tested for its potency against HIV strains harbouring several mutations. These mutations are associated with resistance to protease inhibitors and result in viruses that show various degrees of phenotypic cross-resistance to five of the currently commercially available drugs (Saquinavir, Ritonavir, Nelfinavir, Indinavir and Amprenavir).

HIV strain r13029 = experiment: as above; details: Human immunodeficiency virus 1, strain r13029; L10I/L, M36I, M46L, L63P, A71V, I84V, N88D, L90M
Procedure: as §1, §2

HIV strain r13025 = experiment: as above; details: Human immunodeficiency virus 1, strain r13025; L10I, M46I, L63P, A71V, I84V
Procedure: as §1, §2

HIV strain r13020 = experiment: as above; details: Human immunodeficiency virus 1, strain r13020; L10I, K20R, M36I, 154V, A71V, V82T, 184V
Procedure: as §1, §2

HIV strain r13023 = experiment: as above; details: L10I, M36I/M, I54V/I, L63P, A71V, G73S, I84V, L90M
Procedure: as §1, §2

HIV strain r13036 = experiment: as above; details: Human immunodeficiency virus 1, strain r13036; L10I, L63P, A71V, G73S, L90M
Procedure: as §1, §2

HIV strain r13027 = experiment: as above; details: Human immunodeficiency virus 1, strain r13027; L10M/I, K20R, M36I, L63P, A71V, G73S, V77I, I84V, L90M
Procedure: as §1, §2

HIV strain r13021 = experiment: as above; details: L10I, K20R, L24I, M36I, I54V, L63P, A71V, V82T, I84V
Procedure: as §1, §2

HIV strain r13031 = experiment: as above; details: Human immunodeficiency virus 1, strain r13031; G48V, I54V, V77I, V82A, L90M/L
Procedure: as §1, §2

HIV strain r13030 = experiment: as above; details: Human immunodeficiency virus 1, strain r13030; L10V/I, M36I, I54V, L63P, A71V, V82T, L90M
Procedure: as §1, §2

HIV strain r13026 = experiment: as above; details: Human immunodeficiency virus 1, strain r13026; L10I, M46I, I54V, L63P, A71V, V82T, I84V
Procedure: as §1, §2

HIV strain r13024 = experiment: as above; details: Human immunodeficiency virus 1, strain r13024; L10I, M36I, L63P, A71V, G73S, I84V, L90M
Procedure: as §1, §2

HIV strain r13033 = experiment: as above; details: Human immunodeficiency virus 1, strain r13033; L10I, M46L, I54V, L63P, A71V, V82A, L90M
Procedure: as §1, §2

HIV strain r13022 = experiment: as above; details: Human immunodeficiency virus 1, strain r13022; K20R, M36I, M46I/M, 154V, L63P, A71V/I, V82T, L90M
Procedure: as §1, §2

HIV strain r13034 = experiment: as above; details: Human immunodeficiency virus 1, strain r13034; L10I, M36I, I54V, L63P, A71V, I84V
Procedure: as §1, §2

HIV strain r13035 = experiment: as above; details: Human immunodeficiency virus 1, strain r13035; D30N, L63P, V77I, N88D
Procedure: as §1, §2

[1] = Human immunodeficiency virus 1, MT4, strain LAI, read-out: IC50
[2] = Human immunodeficiency virus 1, strain r13023
[3] = Human immunodeficiency virus 1, strain r13021

SMILES | pIC50 (HIV-1 strain LAI; [1]) | pIC50 (HIV strain r13037) | pIC50 (HIV strain r13029) | pIC50 (HIV strain r13025) | pIC50 (HIV strain r13020) | pIC50 (HIV strain r13023; [2]) | pIC50 (HIV strain r13036) | pIC50 (HIV strain r13027) | pIC50 (HIV strain r13021; [3]) | pIC50 (HIV strain r13031) | pIC50 (HIV strain r13030) | pIC50 (HIV strain r13026) | pIC50 (HIV strain r13024) | pIC50 (HIV strain r13033) | pIC50 (HIV strain r13022) | pIC50 (HIV strain r13034) | pIC50 (HIV strain r13035) | pIC50 (HIV strain r13023; strain r13023) | pIC50 (HIV strain r13021; strain r13021) | pIC50 (HIV-1 strain LAI; Human immunodeficiency virus 1, MT4)
CC(C)(C)NC(=O)[C@@H]1CN(Cc2cccnc2)CCN1C[C@@H](O)C[C@@H](Cc1ccccc1)C(=O)N[C@H]1c2ccccc2C[C@H]1O [IND, Indinavir] | 7.56 | 6.71 | 6.04 | 5.90 | 5.86 | 6.17 | 6.20 | 6.15 | 5.76 | 6.81 | 6.24 | 5.57 | 5.97 | 6.07 | 5.77 | 6.20 | 8.13 |  |  | 
CC(C)CN(CC(O)C(Cc1ccccc1)NC(=O)OC1COC2OCCC12)S(=O)(=O)c1ccc2c(c1)OCO2 (stereo not drawn) [Compound 14] | 9.10 | 9.30 | 8.28 | 7.48 | 9.10 |  | 8.54 | 8.14 |  | 9.52 | 9.70 | 9.10 | 8.26 | 8.96 | 8.96 | 8.26 | 9.70 | 8.55 | 8.82 | 
CC(C)c1nc(CN(C)C(=O)N[C@H](C(=O)N[C@@H](Cc2ccccc2)C[C@H](O)[C@H](Cc2ccccc2)NC(=O)OCc2cncs2)C(C)C)cs1 [RIT, Ritonavir] | 7.52 | 5.57 | 5.44 | 5.65 | 5.03 | 5.42 | 5.55 | 5.50 | < 5.00 | 6.07 | 5.52 | < 5.00 | 5.55 | 5.46 | < 5.00 | < 5.00 | 7.51 |  |  | 
CC(C)CN(C[C@@H](O)[C@H](Cc1ccccc1)NC(=O)O[C@H]1CCOC1)S(=O)(=O)c1ccc(N)cc1 [AMP, Amprenavir] | 7.44 | 6.78 | 6.67 | 6.18 | 6.97 | 6.66 | 6.35 | 6.19 | 6.67 | 7.47 | 7.31 | 6.87 | 6.74 | 6.71 | 6.74 | 6.17 | 7.98 |  |  | 
Cc1c(O)cccc1C(=O)N[C@@H](CSc1ccccc1)[C@H](O)CN1C[C@H]2CCCC[C@H]2C[C@H]1C(=O)NC(C)(C)C [NEL, Nelfinavir] | 7.48 | 6.18 | 5.42 | 5.04 | 5.43 | 5.99 | 5.49 | 5.49 | 5.39 | 6.30 | 6.00 | 5.91 | 5.49 | 5.92 | 5.39 | 5.70 | 6.44 |  |  | 
CC(C)(C)NC(=O)[C@@H]1C[C@@H]2CCCC[C@@H]2CN1C[C@@H](O)[C@H](Cc1ccccc1)NC(=O)[C@H](CC(N)=O)NC(=O)c1ccc2ccccc2n1 [SAQ, Saquinavir] |  | 7.56 | 5.58 | 6.80 | 5.45 | 6.11 | 6.29 | 5.53 | 5.84 | 6.17 | 6.76 | 5.70 | 5.68 | 7.28 | 6.18 | 6.00 | 8.28 |  |  | 8.10
